From patent US11440913B2, “Aminoimidazopyridazines as kinase inhibitors” (BRISTOL-MYERS SQUIBB COMPANY, priority 2017, dated 2022)
Where a name gives a salt, the structure may show the parent alone. Read-outs that look alike come from different tables or passages of the source.

Key:
[1] = target: His-GST-TVMV-hRIPK1(1-324) (Homo sapiens (Human), UniProt Q13546); experiment: RIPK1 HTRF Binding Assay; details: HTRF binding, 1 h at rt; read-out: RIPK1 (IC50)
Procedure, shortened: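 HTRF probe-displacement binding: 1 nM His-GST-TVMV-hRIPK1(1-324) (baculovirus construct), 90.6 nM probe, 0.2 nM anti-GST-Tb in 20 mM HEPES, 10 mM MgCl2, 0.015% Brij-35, 4 mM DTT, 0.05 mg/mL BSA. Incubated 1 h at rt; FRET 520/495 nm ratio, inhibition relative to DMSO-only wells.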

[2] = system: MLKL phosphorylation in HT29-L23 human colorectal adenocarcinoma cells; experiment: MLKL Phosphorylation High-Content Assay; type: cell-based; details: 6 h, necroptosis induced with TNFα, SMAC mimetic and Z-VAD, read-out: pMLKL (IC50)
Procedure, shortened: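 HT29-L23 cells pretreated 30 min at 37 °C with compound (6.25 to 0.106 μM final), then necroptosis induced with TNFα 35 ng/mL, SMAC mimetic 700 nM and Z-VAD 140 nM for 6 h. Fixed cells immunostained for MLKL pS358 and imaged; IC50 and Ymax from 4-parameter logistic fit.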

His-GST-TVMV-hRIPK1(1-324), sequence (Q13546 1-324): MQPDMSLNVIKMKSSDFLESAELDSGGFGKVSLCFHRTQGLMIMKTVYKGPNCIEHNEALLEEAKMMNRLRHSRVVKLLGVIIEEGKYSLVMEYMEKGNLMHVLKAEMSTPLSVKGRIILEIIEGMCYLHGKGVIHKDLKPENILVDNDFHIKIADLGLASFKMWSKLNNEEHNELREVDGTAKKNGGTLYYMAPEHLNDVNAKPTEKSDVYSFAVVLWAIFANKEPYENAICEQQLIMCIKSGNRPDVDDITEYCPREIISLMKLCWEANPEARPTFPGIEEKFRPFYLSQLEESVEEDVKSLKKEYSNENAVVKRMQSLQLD

SMILES | IC50 [1] [nM] | IC50 ([2]; Homo sapiens) [nM] | IC50 [2] [nM]
CC(=O)Nc1cn2nc(-c3cnc(C(F)(F)F)c(C(=O)NCc4cc(C(F)(F)F)ccc4F)c3)ccc2n1 [Example 30, 5-{2-acetamidoimidazo[1,2-b]pyridazin-6-yl}-N-{[2-fluoro-5-(trifluoromethyl)phenyl]methyl}-2-(trifluoromethyl)pyridine-3-carboxamide] | 199 | 341 | 
CC(=O)Nc1cn2nc(-c3cncc(C(=O)NCCC(C)c4ccccc4)c3)ccc2n1 (centres unmarked) [Example 238, 5-{2-acetamidoimidazo[1,2-b]pyridazin-6-yl}-N-(3-phenylbutyl) pyridine-3-carboxamide] | 41 | 356 | 
[2H]C([2H])([2H])Oc1ncc(-c2ccc3nc(NC(C)=O)cn3n2)cc1C(=O)NC([2H])([2H])c1cc(F)cc(F)c1OC1CCOCC1 [Example 46, N-{[3,5-difluoro-2-(oxan-4-yloxy)phenyl](deutero)methyl}-5-{2-acetamidoimidazo[1,2-b]pyridazin-6-yl}-2-(D3)methoxypyridine-3-carboxamide] | 2 | 1 | 
COc1ncc(-c2ccc3nc(NC(=O)C(C)C)cn3n2)cc1C(=O)NCc1ccccc1OC(F)(F)F [Example 263, 2-methoxy-5-[2-(2-methylpropanamido)imidazo[1,2-b]pyridazin-6-yl]-N-{[2-(trifluoromethoxy)phenyl]-methyl}pyridine-3-carboxamide] | 107 | 38 | 
CC(=O)Nc1cn2nc(-c3cnc(C(F)(F)F)c(C(=O)NCc4c(F)ccc(F)c4OCC4CC4)c3)ccc2n1 [Example 31, N-{[2-(cyclopropylmethoxy)-3,6-difluorophenyl]methyl}-5-{2-acetamidoimidazo[1,2-b]pyridazin-6-yl}-2-(trifluoromethyl)pyridine-3-carboxamide] | 82 | 339 | 
COc1ncc(-c2ccc3nc(NC(C)=O)cn3n2)cc1C(=O)NCc1cc(F)cc(OC(F)(F)F)c1 [Example 138, 5-{2-acetamidoimidazo[1,2-b]pyridazin-6-yl}-N-{[3-fluoro-5-(trifluoromethoxy)phenyl]methyl}-2-methoxypyridine-3-carboxamide] | 13 | 72 | 
[2H]C([2H])([2H])Oc1nc(C)c(-c2ccc3nc(NC(C)=O)cn3n2)cc1C(=O)NCc1cc(F)cc(F)c1O[C@@H]1CCOC1 [Example 169, N-({3,5-difluoro-2-[(3R)-oxolan-3-yloxy]phenyl}methyl)-5-{2-acetamidoimidazo[1,2-b]pyridazin-6-yl}-2-(deutero)methoxy-6-methylpyridine-3-carboxamide] | 3 | 10 | 
[2H]C([2H])([2H])Oc1nc(C)c(-c2ccc3nc(NC(C)=O)cn3n2)cc1C(=O)NCc1cc(F)cc(F)c1OC([2H])([2H])C1CC1 [Example 174, N-({2-[cyclopropyl(deutero)methoxy]-3,5-difluorophenyl}methyl)-5-{2-acetamidoimidazo[1,2-b]pyridazin-6-yl}-2-(deutero)methoxy-6-methylpyridine-3-carboxamide] | 3 | 1 | 
[2H]C([2H])([2H])Oc1ncc(-c2ccc3nc(NC(C)=O)cn3n2)cc1C(=O)NCc1cc(F)cc(F)c1OC([2H])([2H])C1CC1 [Example 49, N-({2-[cyclopropyl(deutero)methoxy]-3,5-difluorophenyl}methyl)-5-{2-acetamidoimidazo[1,2-b]pyridazin-6-yl}-2-(D3)methoxypyridine-3-carboxamide] | 3 | 5 | 
[2H]C([2H])([2H])Oc1ncc(-c2ccc3nc(NC(C)=O)cn3n2)cc1C(=O)NCc1cc(F)cc(F)c1OC1CCCOC1 (centres unmarked) [Example 43, N-{[3,5-difluoro-2-(oxan-3-yloxy)phenyl]methyl}-5-{2-acetamidoimidazo[1,2-b]pyridazin-6-yl}-2-(D3)methoxypyridine-3-carboxamide] | 10 | 28 | 
CC(=O)Nc1cn2nc(-c3cc(C(=O)NCc4cc(F)cc(F)c4OC4CCOC(C)C4)c(C)nc3C)ccc2n1 (centres unmarked) [Example 62, N-({3,5-difluoro-2-[(2-methyloxan-4-yl)oxy]phenyl}methyl)-5-{2-acetamidoimidazo[1,2-b]pyridazin-6-yl}-2,6-dimethylpyridine-3-carboxamide] | 11 | 29 | 
COc1ncc(-c2ccc3nc(NC(=O)CC#N)cn3n2)cc1C(=O)NCc1ccccc1OC(F)(F)F [Example 32, 5-[2-(2-cyanoacetamido)imidazo[1,2-b]pyridazin-6-yl]-2-methoxy-N-{[2-(trifluoromethoxy)phenyl]methyl}pyridine-3-carboxamide] | 78 | 177 | 
COc1nc(C)c(-c2ccc3nc(NC(C)=O)cn3n2)cc1C(=O)NC(C)c1cc(C(F)(F)F)ccc1F (centres unmarked) [Example 276, 5-{2-acetamidoimidazo[1,2-b]pyridazin-6-yl}-N-{1-[2-fluoro-5-(trifluoromethyl)phenyl]ethyl}-2-methoxy-6-methylpyridine-3-carboxamide] | 28 |  | 39
COc1ncc(-c2ccc3nc(NC(C)=O)c(C)n3n2)cc1C(=O)NCCC(C)c1ccccc1 (centres unmarked) [Example 256, 5-{2-acetamido-3-methylimidazo[1,2-b]pyridazin-6-yl}-2-methoxy-N-(3-phenylbutyl)pyridine-3-carboxamide, TFA] | 9 | 27 | 
COc1nc(C)c(-c2ccc3nc(NC(C)=O)cn3n2)cc1C(=O)NCc1ncccc1OCC1CCCC1 [Example 312, N-{[3-(cyclopentylmethoxy)pyridin-2-yl]methyl}-5-{2-acetamidoimidazo[1,2-b]pyridazin-6-yl}-2-methoxy-6-methylpyridine-3-carboxamide, 2 TFA] | 7 |  | 38
Cc1nc(C)c(-c2ccc3nc(NC(=O)CO)cn3n2)cc1C(=O)NCc1cc(OC(F)(F)F)ccc1F [Example 38, N-(2-fluoro-5-(trifluoromethoxy)benzyl)-5-(2-(2-hydroxyacetamido)imidazo[1,2-b]pyridazin-6-yl)-2,6-dimethylnicotinamide] | 13 | 34 | 
[2H]C([2H])([2H])Oc1cc(C)c(-c2ccc3nc(NC(C)=O)cn3n2)cc1C(=O)NCc1cc(OC(F)(F)F)ccc1F [Example 417] | 4 | 9 | 
COc1ncc(-c2ccc3nc(NC(C)=O)cn3n2)cc1C(=O)NCc1cccc(F)c1OC(C)C1CC1 (centres unmarked) [Example 135, N-{[2-(1-cyclopropylethoxy)-3-fluorophenyl]methyl}-5-{2-acetamidoimidazo[1,2-b]pyridazin-6-yl}-2-methoxypyridine-3-carboxamide] | 3 |  | 7
COc1ncc(-c2ccc3nc(NC(=O)C(C)C)cn3n2)cc1C(=O)NCc1cc(F)cc(F)c1OC1CCOCC1 [Example 265, N-{[3,5-difluoro-2-(oxan-4-yloxy)phenyl]methyl}-2-methoxy-5-[2-(2-methylpropanamido)imidazo[1,2-b]pyridazin-6-yl]pyridine-3-carboxamide] | 3 | 7 | 
CC(=O)Nc1cn2nc(-c3ccc(Cl)c(C(=O)NCc4ccc(OC(F)(F)F)cc4)c3F)ccc2n1 [Example 391, 6-chloro-3-{2-acetamidoimidazo [1,2-b]pyridazin-6-yl}-2-fluoro-N-{[4-(trifluoromethoxy)phenyl]methyl} benzamide] | 105 | 274 | 
CC(=O)Nc1cn2nc(-c3cc(C(=O)NCc4ccccc4OC(F)(F)F)c(C)nc3C)ccc2n1 [Example 89, 5-{2-acetamidoimidazo[1,2-b]pyridazin-6-yl}-2,6-dimethyl-N-{[2-(trifluoro-methoxy)phenyl]methyl}pyridine-3-carboxamide] | 38 | 88 | 
[2H]C([2H])([2H])Oc1nc(C)c(-c2ccc3nc(NC(C)=O)cn3n2)cc1C(=O)NCc1cc(F)cc(F)c1O[C@H]1CCOC1 [Example 171, N-({3,5-difluoro-2-[(3S)-oxolan-3-yloxy]phenyl}methyl)-5-{2-acetamidoimidazo[1,2-b]pyridazin-6-yl}-2-(deutero)methoxy-6-methylpyridine-3-carboxamide] | 3 | 3 | 
[2H]C([2H])([2H])Oc1ncc(-c2ccc3nc(NC(C)=O)cn3n2)cc1C(=O)NCc1cc(F)cc(F)c1OC1CCOCC1 [Example 50, N-{[3,5-difluoro-2-(oxan-4-yloxy)phenyl]methyl}-5-{2-acetamidoimidazo[1,2-b]pyridazin-6-yl}-2-(D3)methoxypyridine-3-carboxamide] | 2 | 2 | 
O=C(CN1CCC(F)(F)CC1)Nc1cn2nc(-c3cccc(C(=O)NCc4cc(OC(F)(F)F)ccc4F)c3F)ccc2n1 [Example 427, 3-{2-[2-(4,4-difluoropiperidin-1-yl)acetamido]imidazo [1,2-b]pyridazin-6-yl}-2-fluoro-N-{[2-fluoro-5-(trifluoromethoxy)phenyl]methyl} benzamide] | 7 | 3 | 
[2H]C([2H])([2H])Oc1nc(C)c(-c2ccc3nc(NC(C)=O)cn3n2)cc1C(=O)NC(C)c1ccccc1OC(F)(F)F (single isomer, unassigned) [Example 13-2, 5-{2-acetamidoimidazo[1,2-b]pyridazin-6-yl}-2-(D3)methoxy-6-methyl-N-{1-[2-(trifluoromethoxy)phenyl]ethyl}pyridine-3-carboxamide] | 6 |  | 1
